According to article PMC12471853, “New Marine Actinobacteria Strain, Micromonospora sp. SH-82: Characterization, Specialized Metabolites and Biological Activities” (Microorganisms, 2025):
Read-outs that look alike come from different tables or passages of the source.

Columns and labels:
[1] = Cytotoxic activity, CellTiter Glo luminescent cell viability assay, 72 h; format: cell-based; settings: human, read-out: Percentage of Cell Viability
Method: (§1) Biological activity assays were conducted on microbial extract from Micromonospora sp. SH-82 and on isolated compounds 1, 2, 3, and 5. The tests focused on antiplasmodial and cytotoxic activity. Detailed protocols for these activity tests can be found in reference. The cytotoxic activity was performed on human colorectal HCT-116 and mammary MDA-MB-231 carcinoma cells. Human HCT-116 colorectal carcinoma cells were grown in Gibco McCoy’s 5A supplemented with 10% fetal calf serum and 1% glutamine. MDA-MB231 breast carcinomas were grown in RPMI 1640 supplemented with 10% fetal calf serum and 1% glutamine. Human hTERT-RPE1 cells were cultured in DMEM/F12 medium containing 10% fetal calf serum and 1% glutamine, enabling their impact on a healthy cell line. Cell lines were maintained at 37 °C in a humidified atmosphere containing 5% CO2. Cell viability was determined via a luminescent assay according to the manufacturer’s instructions (Promega, Madison, WI, USA). Briefly, the cells were seeded in 96-well plates (2.5 × 10^3 cells/well) containing 90 μL of growth medium. After 24 h of culture, the cells were treated with the tested compounds at 10 and 1 μg/mL (extracts) or at 10 and 1 μM (pure compounds) final concentrations. Control cells were treated with the vehicle (DMSO), and no effect was observed from DMSO diluted at 1/1000. After 72 h of incubation, 100 μL of CellTiter Glo Reagent was added for 15 min before recording luminescence with a spectrophotometric plate reader PolarStar Omega (BMG LabTech, Ortenberg, Germany). The percent viability index was evaluated by two independent assays in triplicate.

[2] = Cytotoxicity on non-cancerous cell line, CellTiter Glo luminescent cell viability assay, 72 h; format: cell-based, human; settings: human, hTERT-RPE1 cells (non-cancerous cell line), 72 h, read-out: Percentage of Cell Viability; for viability at 72 h, 1 µM: RPE1, pure compounds at 1 µM; for viability at 72 h, 10 µM: RPE1, pure compounds at 10 µM
Method: as §1

RPE1 cell line = assay: as above; format: cell-based, human; settings: RPE1; 10 and 1 µM (compounds) or 10 and 1 µg/mL (extract)
Method: as §1

[3] = Stability check of compound 5 by new NMR and ESI+-HRMS analyses; format: physicochemical; settings: re-analysis by NMR and ESI+-HRMS prior to biological assays, one year later (Figure S43)
Method: Prior to conducting biological assays, it was necessary to ascertain the stability of compound 5. To this end, new NMR and ESI^+-HRMS analyses were recorded (Figures S38–S43). […] The first one could be identified as the 9-hydroxy derivative of 5 and, thus, to 6,9-hemiacetal-9-hydroxy-10,11-anhydroerythronolide B (5.1) (Figure 2). The second one has a carbonyl in C-9 at δC 208.8 and, therefore, corresponds to the open form of the first one: 8-epi-10,11-anhydroerythronolide B (5.2) (Figure 2).

[4] = system: Plasmodium falciparum 3D7; assay: Antiplasmodial activity, in vitro culture of chloroquine-sensitive strain; format: cell-based
Method: Biological activity assays were conducted on microbial extract from Micromonospora sp. SH-82 and on isolated compounds 1, 2, 3, and 5. The tests focused on antiplasmodial and cytotoxic activity. Detailed protocols for these activity tests can be found in reference. The antiplasmodial activity was conducted by using in vitro cultures of the chloroquine-sensitive 3D7 strain of Plasmodium falciparum (BEI Resources, Manassas, VA, USA) following the methodology of Trager and Jensen. The assays were performed in three independent experiments (n = 3), each conducted in duplicate. Artemisinin was used as the positive control, while DMSO served as the vehicle and negative control, representing 100% parasite growth. Untreated red blood cells were also included as a blank. The measurements consisted of determining the concentration required to inhibit 50% of parasite growth (IC50), expressed in µg/mL for the crude extract and in µM for the isolated compounds. IC50 values were calculated via simple linear regression.

[5] = HCT-116 colorectal carcinoma cells, HCT-116, pure compounds at 1 µM
[6] = HCT-116 colorectal carcinoma cells, HCT-116, pure compounds at 10 µM
[7] = MDA-MB-231 breast carcinoma cells, MDA-MB-231, pure compounds at 1 µM
[8] = MDA-MB-231 breast carcinoma cells, MDA-MB-231, pure compounds at 10 µM

SMILES | viability at 72 h, 1 µM [1, 5] [%] | viability at 72 h, 10 µM [1, 6] [%] | viability at 72 h, 1 µM [1, 7] [%] | viability at 72 h, 10 µM [1, 8] [%] | viability at 72 h, 1 µM [2] [%] | viability at 72 h, 10 µM [2] [%] | toxicity towards healthy cells (in words) (RPE1 cell line) | stability of the compound (in words) [3] | IC50 ([4]; 3D7, positive control, read-out: IC50 against Plasmodium falciparum 3D7 (converted)) [µg/mL] | IC50 ([4]; 3D7, Experiment 1, dose-response curve, Figure 8, read-out: IC50 against Plasmodium falciparum 3D7 (converted)) [µM] | IC50 ([4]; 3D7, Experiment 2, dose-response curve, Figure 8, read-out: IC50 against Plasmodium falciparum 3D7 (converted)) [µM] | IC50 ([4]; 3D7, Experiment 3, dose-response curve, Figure 8, read-out: IC50 against Plasmodium falciparum 3D7 (converted)) [µM] | IC50 ([4]; 3D7, IC50 obtained from the average dose-response curve, Figure 8, read-out: IC50 (mean curve)) [µM] | IC50 ([4]; 3D7, arithmetic mean ± SD of three independent assays, read-out: IC50 against Plasmodium falciparum 3D7 (converted)) [µM] | IC50 ([4]; 3D7, mean ± SD of three independent assays, read-out: IC50 against Plasmodium falciparum 3D7 (converted)) [µg/mL]
CC[C@H]1OC(=O)[C@H](C)[C@@H](O)[C@H](C)[C@@H](O)[C@@H](C)C[C@@H](C)C(=O)[C@H](C)[C@@H](O)[C@H]1C [Compound 2, 6-desoxyerythronolide B] | 101 ± 1.62 | 103 ± 3.56 | 105 ± 1.56 | 101 ± 1.13 | 99.1 ± 1.4 | 95.3 ± 0.96 | No activity | – | – | – | – | – | – | – | –
CC[C@H]1OC(=O)[C@H](C)[C@@H](O)[C@H](C)[C@@H](O)[C@](C)(O)C[C@@H](C)C(=O)[C@H](C)[C@@H](O)[C@H]1C [Compound 1, Erythronolide B] | 101 ± 0.5 | 104 ± 1.16 | 107 ± 0.86 | 100 ± 0.76 | 102 ± 1.58 | 97.3 ± 1.03 | No activity | – | – | – | – | – | – | – | –
CCC1OC(=O)C(C)C(O)C(C)C(O)C2(C)CC(C)C(OC)(O2)C(C)=CC1C (stereo not drawn) [Compound 5, 6,9-hemiacetal-9-O-methyl-10,11-anhydroerythronolide B] | 99.1 ± 0.32 | 99.7 ± 0.59 | 100 ± 1.74 | 99 ± 3.28 | 103 ± 1.52 | 103 ± 1.77 | No activity | a mixture of two compounds is observed | – | – | – | – | – | – | –
C[C@@H]1CC[C@H]2[C@@H](C)C(=O)O[C@@H]3O[C@@]4(C)CC[C@@H]1[C@]32OO4 [Artemisinin, reference compound] | – | – | – | – | – | – | – | – | 0.00636 | – | – | – | – | – | –
CCC1OC(=O)C(C)C(OC2CC(C)(OC(C)=O)C(OC(C)=O)C(C)O2)C(C)C(OC2OC(C)CC(N(C)C)C2O)C(C)(OC2CC(N(C)C)C(O)C(C)O2)CC(C)C(=O)C(C)C(O)C1(C)O (stereo not drawn) [Compound 3, megalomicin C1] | 100 ± 1.66 | 97.3 ± 2.22 | 102 ± 1.74 | 98.6 ± 1.38 | 104 ± 1.32 | 104 ± 1.94 | No activity | – | – | 3.61 | 9.54 | 5.96 | 6.31 | 6.37 | 6.12 ± 2.87
